Biological target: T1, human insulin receptor (CHO.IR cells) (Homo sapiens, UniProt P06213)
T1 construct: host or cells: CHO.IR cells (CHO)
Assay: Cell-based assay for insulin receptor tyrosine kinase activity
Conditions: 20 min; CHO.IR cells treated with 100 μM of compound; read-out: reduction in tyrosine kinase activity
Procedure: CHO.IR cells overexpressing human insulin receptor were obtained from Stanford University. Approximately 1.5×10^5 cells were seeded in each well of a 96-well plate containing Hams F12 medium plus 10% fetal calf serum, fungizone, penicillin, and streptomycin. The cells were incubated at 37° C. for approximately 24 hours, allowing cells to reach confluency. The cells were then washed with phosphate buffered saline (PBS) three times and then incubated in serum-free medium at 37° C. for 2 hours. Insulin or test compounds were added to the wells and the cells were incubated for an additional 20 minutes at 37° C. The cells were washed with PBS three times and then lysed in 60 μL/well of a lysis buffer containing 50 mM HEPES, pH 7.4, 1% Triton X-100, 5 mM EDTA, 5 mM EGTA, 20 mM sodium pyrophosphate, 1 mM sodium vanadate, 20 mM sodium fluoride, 1 mg/mL Bacitracin, 150 mM sodium chloride, 2 μg/mL Aprotonin, and 1 mM PMSF. Lysates were transferred to a second 96-well plate pre-coated with monoclonal anti-insulin receptor antibody (0.2 μg/50 μL/well, in 20 mM NaHCO3, pH 9.6). The second plate was incubated at 4° C. for 16 hours to immunoabsorb insulin receptors.
CHO.IR cells were cultured at approximately 1.5×10^5 cells/well (in a 96-well plate) in a Hams F12 medium supplemented with 10% fetal calf serum, fungizone, penicillin, and streptomycin. The cells were incubated at 37° C. for 24 hours, allowing cells to reach confluency. The cells were then washed with PBS three times and then incubated in serum-free medium at 37° C. for 2 hours. Insulin or test compounds were added to the cells and incubated for an additional 20 minutes at 37° C. The cells were washed three times with PBS and lysed in the same 60 μL lysis buffer as mentioned in Example 174. Lysates were transferred to a second 96-well plate pre-coated with monoclonal anti-insulin receptor antibody (under the same conditions as those mentioned in Example 174). Lysates were incubated at 4° C. for 16 hours to immunoabsorb insulin receptors.
20 μL of a kinase reaction mixture (50 mM Hepes, pH 7.6, 150 mM NaCl, 5 mM MgCl2, 5 mM MnCl2, 0.1% Triton x-100, 1 mg/mL poly(Glu:Tyr)(4:1), 2 μCi of carrier-free [γ-^32P]ATP) was added to each well. After reacting at 25° C. for 40 minutes, the reaction mixture was transferred to a Multiscreen pH plate (Millipore, Billerica, Mass.) and unbound ATP was washed away. The insulin receptor tyrosine kinase activity was determined by detecting the radioactivities associated with the wells using a Topcount scintillation counter (Perkin-Elmer, Wellesley, Mass.).

T1 sequence (P06213 28-758 limits assumed): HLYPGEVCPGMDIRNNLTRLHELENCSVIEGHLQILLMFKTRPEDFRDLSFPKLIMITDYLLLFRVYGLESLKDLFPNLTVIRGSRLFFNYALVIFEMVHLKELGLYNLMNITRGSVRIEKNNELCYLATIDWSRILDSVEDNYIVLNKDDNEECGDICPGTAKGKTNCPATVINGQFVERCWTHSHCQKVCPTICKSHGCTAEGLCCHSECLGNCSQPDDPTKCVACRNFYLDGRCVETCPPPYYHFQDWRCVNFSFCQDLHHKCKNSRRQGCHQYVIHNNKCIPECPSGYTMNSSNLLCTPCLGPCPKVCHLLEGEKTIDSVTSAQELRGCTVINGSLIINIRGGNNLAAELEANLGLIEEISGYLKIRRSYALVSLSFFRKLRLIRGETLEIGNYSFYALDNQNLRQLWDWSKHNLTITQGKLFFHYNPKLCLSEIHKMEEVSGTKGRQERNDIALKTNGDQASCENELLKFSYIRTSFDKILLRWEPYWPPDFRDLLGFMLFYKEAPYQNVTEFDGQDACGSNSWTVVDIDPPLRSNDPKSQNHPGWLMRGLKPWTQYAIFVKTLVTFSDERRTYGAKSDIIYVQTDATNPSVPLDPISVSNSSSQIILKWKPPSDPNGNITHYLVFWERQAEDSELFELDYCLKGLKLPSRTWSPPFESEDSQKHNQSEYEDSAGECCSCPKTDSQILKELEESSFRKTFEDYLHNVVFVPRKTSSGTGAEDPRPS
T1 sequence (P06213 763-1382 limits assumed): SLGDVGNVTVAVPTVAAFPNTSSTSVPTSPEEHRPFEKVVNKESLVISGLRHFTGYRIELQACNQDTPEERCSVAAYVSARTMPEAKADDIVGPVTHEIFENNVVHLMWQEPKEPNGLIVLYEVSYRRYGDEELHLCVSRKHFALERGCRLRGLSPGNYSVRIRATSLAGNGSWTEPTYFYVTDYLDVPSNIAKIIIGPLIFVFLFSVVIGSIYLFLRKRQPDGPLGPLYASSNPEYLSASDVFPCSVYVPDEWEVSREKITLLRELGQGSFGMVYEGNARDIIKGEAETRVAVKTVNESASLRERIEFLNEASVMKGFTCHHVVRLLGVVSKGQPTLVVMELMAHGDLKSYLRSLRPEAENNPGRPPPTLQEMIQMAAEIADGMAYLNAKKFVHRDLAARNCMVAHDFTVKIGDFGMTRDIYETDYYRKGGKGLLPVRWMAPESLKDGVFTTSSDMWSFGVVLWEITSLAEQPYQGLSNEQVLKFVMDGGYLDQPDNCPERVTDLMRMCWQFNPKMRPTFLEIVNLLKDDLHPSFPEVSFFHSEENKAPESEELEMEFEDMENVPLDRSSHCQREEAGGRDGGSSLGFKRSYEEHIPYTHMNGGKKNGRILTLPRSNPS

inhibition at 100 µM [%] | Structure (SMILES)
12 to 53 | O=C(O)c1oc(C(=O)c2c[nH]c3c(CCCCO)cccc23)c(O)c1-c1c[nH]c2ccccc12 [Compound 21]
12 to 53 | O=C(O)c1oc(C(=O)c2c[nH]c3c(CCCCCO)cccc23)c(O)c1-c1c[nH]c2ccccc12 [Compound 30]
12 to 53 | O=C(O)c1oc(C(=O)c2c[nH]c3c(CCCO)cccc23)c(O)c1-c1c[nH]c2ccccc12 [Compound 9]
12 to 53 | CCCCCc1cccc2c(C(=O)c3oc(C(=O)O)c(-c4c[nH]c5ccccc45)c3O)c[nH]c12 [Compound 171]
12 to 53 | O=C(O)CCc1cccc2c(C(=O)c3oc(C(=O)O)c(-c4c[nH]c5ccccc45)c3O)c[nH]c12 [Compound 170]
12 to 53 | O=C(O)c1oc(C(=O)c2c[nH]c3c(CCCC(CO)CO)cccc23)c(O)c1-c1c[nH]c2ccccc12 [Compound 173]
12 to 53 | O=C(O)CCCCc1cccc2c(C(=O)c3oc(C(=O)O)c(-c4c[nH]c5ccccc45)c3O)c[nH]c12 [Compound 172]
12 to 53 | O=C(O)c1sc(C(=O)c2c[nH]c3c(CCCCCO)cccc23)c(O)c1-c1c[nH]c2ccccc12 [Compound 114]

— patent US20060122232A1, “4-Hydroxyfuroic acid derivatives” (DEVELOPMENT CENTER FOR BIOTECHNOLOGY, priority 2004, published 2006)
